{"source": "patent US12496336B2", "about": "(priority 2019, dated 2025)", "tested_on": "H3N2 A/Hong Kong/1/1968 virus", "format": "cell-based, influenza A virus", "data": [{"compound": "CC(=O)N[C@H]1[C@H]([C@H](O)[C@H](O)CO)OC(C(=O)O)=C[C@@H]1N=C(N)N", "note": "[Zanamivir, zanamivir]", "values": [{"measurement": "inhibition of cell-to-cell spread of the virus", "value": "efficient inhibition of cell-to-cell virus spread"}]}]}
